Data published in PubChem BioAssay (NCI).
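Growth conditions: 96-well plates. Treatment: test compound, 48 hours, 5 concentrations. Analysis: linear interpolation between bracketing concentrations; unreached endpoints set to highest concentration. Abbreviation: GI50, concentration required for 50% inhibition of growth. TGI denotes the concentration required for complete inhibition of growth.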

Tests used:
Experiment in all cases: inhibition of tumour cell growth, NCI panel, 48 h; in the data active = GI50 below about 0.43 µM; inactive = the rest
786-0 renal = test system: 786-0 renal
A498 renal = test system: A498 renal
A549 NSCLC = test system: A549 NSCLC
ACHN renal = test system: ACHN renal
BT-549 breast = test system: BT-549 breast
CAKI-1 renal = test system: CAKI-1 renal
CCRF-CEM leukemia = test system: CCRF-CEM leukemia
COLO 205 colon = test system: COLO 205 colon
DU-145 prostate = test system: DU-145 prostate
EKVX NSCLC = test system: EKVX NSCLC
HCC-2998 colon = test system: HCC-2998 colon
HCT-116 colon = test system: HCT-116 colon
HCT-15 colon = test system: HCT-15 colon
HL-60(TB) leukemia = test system: HL-60(TB) leukemia
HOP-62 NSCLC = test system: HOP-62 NSCLC
HOP-92 NSCLC = test system: HOP-92 NSCLC
HS 578T breast = test system: HS 578T breast
HT29 colon = test system: HT29 colon
IGROV1 ovarian = test system: IGROV1 ovarian
K-562 leukemia = test system: K-562 leukemia
KM12 colon = test system: KM12 colon
LOX IMVI melanoma = test system: LOX IMVI melanoma
M14 melanoma = test system: M14 melanoma
MALME-3M melanoma = test system: MALME-3M melanoma
MCF7 breast = test system: MCF7 breast
MDA-MB-231 breast = test system: MDA-MB-231 breast
MDA-MB-435 = test system: MDA-MB-435
MOLT-4 leukemia = test system: MOLT-4 leukemia
NCI-H226 lung = test system: NCI-H226 lung
NCI-H23 lung = test system: NCI-H23 lung
NCI-H460 lung = test system: NCI-H460 lung
NCI-H522 lung = test system: NCI-H522 lung
NCI/ADR-RES ovarian = test system: NCI/ADR-RES ovarian
OVCAR-3 ovarian = test system: OVCAR-3 ovarian
OVCAR-4 ovarian = test system: OVCAR-4 ovarian
OVCAR-5 ovarian = test system: OVCAR-5 ovarian
OVCAR-8 ovarian = test system: OVCAR-8 ovarian
PC-3 prostate = test system: PC-3 prostate
RPMI-8226 leukemia = test system: RPMI-8226 leukemia
RXF 393 renal = test system: RXF 393 renal
SF-268 CNS = test system: SF-268 CNS
SF-295 CNS = test system: SF-295 CNS
SF-539 CNS = test system: SF-539 CNS
SK-MEL-2 melanoma = test system: SK-MEL-2 melanoma
SK-MEL-28 melanoma = test system: SK-MEL-28 melanoma
SK-MEL-5 melanoma = test system: SK-MEL-5 melanoma
SK-OV-3 ovarian = test system: SK-OV-3 ovarian
SN12C renal = test system: SN12C renal
SNB-19 CNS = test system: SNB-19 CNS
SNB-75 CNS = test system: SNB-75 CNS
SR leukemia = test system: SR leukemia
SW-620 colon = test system: SW-620 colon
T-47D breast = test system: T-47D breast
TK-10 renal = test system: TK-10 renal
U251 CNS = test system: U251 CNS
UACC-257 melanoma = test system: UACC-257 melanoma
UACC-62 melanoma = test system: UACC-62 melanoma
UO-31 renal = test system: UO-31 renal

C=C(C)[C@@H]1CC[C@]2(C(N)=O)CC[C@]3(C)[C@H](CC[C@@H]4[C@@]5(C)C/C(=C/c6cccnc6)[C@H](O)C(C)(C)[C@@H]5CC[C@]43C)[C@@H]12
48.3 µM: TGI (RPMI-8226 leukemia)
12.4 µM: TGI (COLO 205 colon) | TGI (SK-MEL-5 melanoma)
inactive: GI50 (786-0 renal) 6.24 µM | GI50 (A498 renal) 10.4 µM | GI50 (A549 NSCLC) 3.37 µM | GI50 (ACHN renal) 3.53 µM | GI50 (BT-549 breast) 6.36 µM | GI50 (CAKI-1 renal) 2.15 µM | GI50 (CCRF-CEM leukemia) 3.86 µM | GI50 (COLO 205 colon) 3.1 µM | GI50 (DU-145 prostate) 7.08 µM | GI50 (EKVX NSCLC) 4.03 µM | GI50 (HCC-2998 colon) 4.66 µM | GI50 (HCT-116 colon) 2.22 µM | GI50 (HCT-15 colon) 2.6 µM | GI50 (HL-60(TB) leukemia) 2.69 µM | GI50 (HOP-62 NSCLC) 9.52 µM | GI50 (HOP-92 NSCLC) 6.37 µM | GI50 (HS 578T breast) 8.3 µM | GI50 (HT29 colon) 3.68 µM | GI50 (IGROV1 ovarian) 3.85 µM | GI50 (K-562 leukemia) 3.4 µM | GI50 (KM12 colon) 3.82 µM | GI50 (LOX IMVI melanoma) 4.38 µM | GI50 (M14 melanoma) 4.86 µM | GI50 (MALME-3M melanoma) 4.91 µM | GI50 (MCF7 breast) 2.68 µM | GI50 (MDA-MB-231 breast) 99.5 µM | GI50 (MDA-MB-435) 3.77 µM | GI50 (MOLT-4 leukemia) 2.93 µM | GI50 (NCI-H226 lung) 4.98 µM | GI50 (NCI-H23 lung) 4.96 µM | GI50 (NCI-H460 lung) 4.22 µM | GI50 (NCI-H522 lung) 3.93 µM | GI50 (NCI/ADR-RES ovarian) 3.74 µM | GI50 (OVCAR-3 ovarian) 5.02 µM | GI50 (OVCAR-4 ovarian) 3.31 µM | GI50 (OVCAR-5 ovarian) 3.61 µM | GI50 (OVCAR-8 ovarian) 4.54 µM | GI50 (PC-3 prostate) 2.94 µM | GI50 (RPMI-8226 leukemia) 2.5 µM | GI50 (RXF 393 renal) 3.61 µM | GI50 (SF-268 CNS) 6.8 µM | GI50 (SF-295 CNS) 3.75 µM | GI50 (SF-539 CNS) 4.89 µM | GI50 (SK-MEL-2 melanoma) 4.35 µM | GI50 (SK-MEL-28 melanoma) 6.14 µM | GI50 (SK-MEL-5 melanoma) 3.23 µM | GI50 (SK-OV-3 ovarian) 5.26 µM | GI50 (SN12C renal) 4.82 µM | GI50 (SNB-19 CNS) 6.02 µM | GI50 (SNB-75 CNS) 4.29 µM | GI50 (SR leukemia) 4.31 µM | GI50 (SW-620 colon) 4.38 µM | GI50 (T-47D breast) 3.38 µM | GI50 (TK-10 renal) 16.3 µM | GI50 (U251 CNS) 4.61 µM | GI50 (UACC-257 melanoma) 5.83 µM | GI50 (UACC-62 melanoma) 5.38 µM | GI50 (UO-31 renal) 3.02 µM
28.4 µM: TGI (CAKI-1 renal)
> 100 µM: TGI (786-0 renal) | TGI (A498 renal) | TGI (A549 NSCLC) | TGI (ACHN renal) | TGI (BT-549 breast) | TGI (CCRF-CEM leukemia) | TGI (DU-145 prostate) | TGI (EKVX NSCLC) | TGI (HCC-2998 colon) | TGI (HCT-116 colon) | TGI (HCT-15 colon) | TGI (HOP-62 NSCLC) | TGI (HOP-92 NSCLC) | TGI (HS 578T breast) | TGI (HT29 colon) | TGI (IGROV1 ovarian) | TGI (K-562 leukemia) | TGI (KM12 colon) | TGI (M14 melanoma) | TGI (MALME-3M melanoma) | TGI (MCF7 breast) | TGI (MDA-MB-231 breast) | TGI (MDA-MB-435) | TGI (MOLT-4 leukemia) | TGI (NCI-H226 lung) | TGI (NCI-H23 lung) | TGI (NCI-H460 lung) | TGI (NCI-H522 lung) | TGI (NCI/ADR-RES ovarian) | TGI (OVCAR-3 ovarian) | TGI (OVCAR-4 ovarian) | TGI (OVCAR-5 ovarian) | TGI (OVCAR-8 ovarian) | TGI (PC-3 prostate) | TGI (SF-268 CNS) | TGI (SF-295 CNS) | TGI (SF-539 CNS) | TGI (SK-MEL-28 melanoma) | TGI (SK-OV-3 ovarian) | TGI (SN12C renal) | TGI (SNB-19 CNS) | TGI (SNB-75 CNS) | TGI (SR leukemia) | TGI (SW-620 colon) | TGI (T-47D breast) | TGI (TK-10 renal) | TGI (U251 CNS) | TGI (UACC-257 melanoma) | TGI (UACC-62 melanoma) | TGI (UO-31 renal)
37.1 µM: TGI (LOX IMVI melanoma)
11.2 µM: TGI (HL-60(TB) leukemia)
42.9 µM: TGI (SK-MEL-2 melanoma)
52.5 µM: TGI (RXF 393 renal)
